Reference: patent US8586552B2, “4,6-substituted 2,5-dideoxystreptamine aminoglycoside antibiotics” (SelectX Pharmaceuticals, Inc., priority 2012, dated 2013)
Values after ≈ are worked out from the molar mass of the structure shown.

What was measured:
Type in all cases: cell-based
[1] = test system: Klebsiella pneumoniae KR2 (clinical isolate with intermediate aminoglycoside resistance); assay: MIC against Klebsiella pneumoniae clinical isolate KR2; conditions: Klebsiella pneumonia KR2
Excerpt: (§1) Klebsiella pneumoniae (Kpn) and Escherichia coli (Eco) are gram-negative (like Pae), enteric pathogens with increasing clinical relevance. Many clinical isolates of Kpn and Eco harbor extended-spectrum beta-lactamases and are no longer sensitive to most beta-lactam antibiotics. We acquired clinical isolates of Klebsiella pneumoniae and Escherichia coli (Micromyx LLC, Kalamazoo, Mich.) and used this panel to test compounds for anti-enteric activity.

[2] = test system: more than fifty resistant contemporary clinical isolates of Pseudomonas aeruginosa; assay: MIC90 against panel of resistant clinical isolates of Pseudomonas aeruginosa
Excerpt: To assess this, a panel of more than fifty resistant contemporary clinical isolates of Pseudomonas aeruginosa were obtained from multiple sources including JMI Laboratories (North Liberty, Iowa), Pfizer (Groton, Conn.), Micromyx (Kalamazoo, Mich.), Dr. J. Chow (Wayne State University). Strains were characterized for resistance to a wide variety of classes of antibiotics including aminoglycosides, β-lactams and fluoroquinolones. […] This reflects the difficulty in treating clinical Pseudomonas aeruginosa infections. […] Using this stringent panel, we tested a subset of compounds of the invention (Table 4).

[3] = test system: Pseudomonas aeruginosa (Pae, PAWT, ATCC #27853); assay: MIC against Pseudomonas aeruginosa reference strain PAWT; conditions: Pseudomonas aeruginosa wild type PAWT
Excerpt: (§2) For evaluation of efficacy, we assembled panels of representative gram-negative pathogens, including Pseudomonas aeruginosa (Pae, PAWT, ATCC #27853), Klebsiella pneumoniae (Kpn, KPWT, ATCC #700603), Acinetobacter baumannii (Aba, ABWT, ATCC #BAA-747) and Escherichia coli (Eco, ECWT, ATCC #25922). These reference strains are useful indicator organisms to characterize compound activity against bacteria from a pathogenic genus in the absence of multiple resistance mechanisms. Two strains (PAWT and ECWT) are reference strains cited within the Clinical and Laboratory Standards Institute (CLSI) Standards for susceptibility testing by Minimum Inhibitory Concentration (MIC) (SXPS2) and are well suited for quality control. ABWT and ECWT are widely susceptible to aminoglycoside antibiotics, whereas PAWT and KPWT harbor a single aminoglycoside-modifying enzyme (AGME) that targets 4,6-substituted-2-deoxystreptamine AGs. […]

[4] = test system: Acinetobacter baumannii AB2; assay: MIC against Acinetobacter baumannii clinical isolate AB2
Excerpt: (§3) Acinetobacter baumannii is another clinically important and very challenging gram negative pathogen. Members of the Acinetobacter genus, including baumannii, have a remarkable ability to upregulate and acquire resistance determinants. Coupled with its ability to survive for prolonged periods in a hospital environment, A. baumannii is an emerging threat for healthcare institutions globally. We acquired clinical isolates of Acinetobacter baumannii and used this panel to test compounds for anti-Acinetobacter activity. We first tested reference AGs against our panel of Aba strains.

[5] = test system: Pseudomonas aeruginosa PR1 (clinical isolate with intermediate aminoglycoside resistance); assay: MIC against Pseudomonas aeruginosa clinical isolate PR1; conditions: Pseudomonas aeruginosa resistant strain PR1
Excerpt: (§4) Pseudomonas aeruginosa is a prominent nosocomial pathogen. In addition to intrinsic antibiotic resistance to several antibiotics, Pseudomonas has acquired multiple additional mechanisms of resistance. As a result, therapeutic options for the treatment of infections caused by Pseudomonas aeruginosa are limited. We acquired clinical isolates of Pseudomonas aeruginosa (Micromyx LLC, Kalamazoo, Mich.), and used this panel to test compounds for Pseudomonicidal activity. […] For each strain and antibiotic, the mechanism(s) of resistance was inferred from the resistance profile. The presence of specific AGMEs was confirmed by colony PCR.

[6] = test system: Acinetobacter baumannii (Aba, ABWT, ATCC #BAA-747); assay: MIC against Acinetobacter baumannii reference strain ABWT
Excerpt: as §2

[7] = test system: Klebsiella pneumoniae KR1 (clinical isolate with intermediate aminoglycoside resistance); assay: MIC against Klebsiella pneumoniae clinical isolate KR1; conditions: Klebsiella pneumonia KR1; in µg/mL
Excerpt: as §1

[8] = test system: Pseudomonas aeruginosa PR2 (clinical isolate with intermediate aminoglycoside resistance); assay: MIC against Pseudomonas aeruginosa clinical isolate PR2; conditions: Pseudomonas aeruginosa resistant strain PR2
Excerpt: as §4

[9] = test system: Klebsiella pneumoniae KR3 (clinical isolate possessing high-level aminoglycoside resistance); assay: MIC against Klebsiella pneumoniae clinical isolate KR3; conditions: Klebsiella pneumonia KR3; in µg/mL
Excerpt: as §1

[10] = test system: Klebsiella pneumoniae (Kpn, KPWT, ATCC #700603); assay: MIC against Klebsiella pneumoniae reference strain KPWT; conditions: for MIC KPWT: Klebsiella pneumonia KPWT, Table 5 (unit not given), in µg/mL
Excerpt: as §2, with “These reference strains are useful indicator organisms to characterize compound activity against bacteria from a pathogenic genus in the absence of multiple resistance mechanisms.” left out

[11] = test system: fifty resistant contemporary clinical isolates of Acinetobacter baumannii; assay: MIC90 against panel of resistant clinical isolates of Acinetobacter baumannii
Excerpt: As in the case of Pseudomonas aeruginosa and Klebsiella pneumoniae, we considered whether the SAR observed against select Acinetobacter baumannii strains 1, 2 or 3 was indicative of general potency. […] Using this stringent Acinetobacter baumannii panel, we tested a subset of compounds of the invention.

[12] = test system: Pseudomonas aeruginosa PR3 (high-level, efflux-mediated, pan-aminoglycoside resistance); assay: MIC against Pseudomonas aeruginosa clinical isolate PR3; conditions: for MIC PR3: Pseudomonas aeruginosa resistant strain PR3
Excerpt: as §4

[13] = test system: panel of E. coli strains; assay: MIC90 against a panel of E. coli strains; conditions: in µg/mL
[14] = test system: Acinetobacter baumannii AB1; assay: MIC against Acinetobacter baumannii clinical isolate AB1
Excerpt: as §3

[15] = test system: fifty resistant contemporary clinical isolates of Klebsiella pneumoniae; assay: MIC90 against panel of resistant clinical isolates of Klebsiella pneumoniae; conditions: stringent panel of resistant clinical isolates, Table 5
Excerpt: Using this stringent Klebsiella pneumoniae panel, we tested a subset of compounds of the invention.

[16] = test system: Acinetobacter baumannii AB3; assay: MIC against Acinetobacter baumannii clinical isolate AB3
Excerpt: as §3

[17] = test system: Acinetobacter baumannii indicator strains (ABWT and clinical isolates); assay: Acinetobacter baumannii indicator strain panel, reference AGs; conditions: read-out: activity (MIC) against 3 of the 4 indicator strains
Excerpt: as §3

[18] = test system: Escherichia coli (Eco, ECWT, ATCC #25922); assay: MIC against Escherichia coli reference strain ECWT; conditions: ATCC25922
Excerpt: For evaluation of efficacy, we assembled panels of representative gram-negative pathogens, including Pseudomonas aeruginosa (Pae, PAWT, ATCC #27853), Klebsiella pneumoniae (Kpn, KPWT, ATCC #700603), Acinetobacter baumannii (Aba, ABWT, ATCC #BAA-747) and Escherichia coli (Eco, ECWT, ATCC #25922). These reference strains are useful indicator organisms to characterize compound activity against bacteria from a pathogenic genus in the absence of multiple resistance mechanisms. Two strains (PAWT and ECWT) are reference strains cited within the Clinical and Laboratory Standards Institute (CLSI) Standards for susceptibility testing by Minimum Inhibitory Concentration (MIC) (SXPS2) and are well suited for quality control. ABWT and ECWT are widely susceptible to aminoglycoside antibiotics, whereas PAWT and KPWT harbor a single aminoglycoside-modifying enzyme (AGME) that targets 4,6-substituted-2-deoxystreptamine AGs.

[19] = test system: Klebsiella pneumoniae screening panel KPWT, KR1, KR2, KR3; assay: Klebsiella pneumoniae screening panel (KPWT, KR1, KR2, KR3), reference AGs
Excerpt: as §1

Structure (SMILES)	MIC KR2 [1]	MIC90 Pseudomonas aeruginosa [2]	MIC PAWT [3]	MIC AB2 [4]	MIC PR1 [5]	MIC ABWT [6]	MIC KR1 [7]	MIC PR2 [8]	MIC KR3 [9]	MIC KPWT [10]	MIC90 Acinetobacter baumannii [11]	MIC PR3 [12]	MIC90 E. coli [13]	MIC AB1 [14]	MIC90 Klebsiella pneumonia [15]	MIC AB3 [16]	also measured
NCCC(O)C(=O)NC1CC(N)C(OC2OC(CN)C(O)CC2N)C(F)C1OC1OC(CNC2CNC2)C(O)C(N)C1O (stereo not drawn) [SXP 2554]	0.125	4 µg/mL (≈ 6.4 µM)	0.25 µg/mL (≈ 0.4 µM)	0.25 to 0.5 µg/mL	2 µg/mL (≈ 3.2 µM)	0.25 µg/mL (≈ 0.4 µM)	0.25	0.5 µg/mL (≈ 0.8 µM)	0.25-0.5	0.125	2 µg/mL (≈ 3.2 µM)	8 µg/mL (≈ 12.8 µM)	2	0.5 µg/mL (≈ 0.8 µM)	0.5 µg/mL (≈ 0.8 µM)	2 to 4 µg/mL	
NCC[C@H](O)C(=O)N[C@@H]1C[C@H](N)[C@@H](O[C@H]2O[C@H](CN)CC[C@H]2N)[C@H](O)[C@H]1O[C@H]1O[C@H](CO)[C@@H](O)[C@H](N)[C@H]1O [arbekacin]																	MIC ([3]; ATCC27853): 0.5 µg/mL (≈ 0.905 µM); MIC [5]: 8 µg/mL (≈ 14.5 µM); MIC [17]: ≤ 8 µg/mL; MIC ([6]; ATCCBAA747): 0.5 µg/mL (≈ 0.905 µM); MIC [8]: 8 to 16 µg/mL (≈ 14.5 to 29 µM); MIC [18]: 1 µg/mL (≈ 1.81 µM); potency against Klebsiella pneumoniae test panel [19]: potency against 3 of 4 strains tested; MIC ([10]; ATCC700603, Klebsiella pneumoniae KPWT, Table 2): 0.25 to 0.5 µg/mL (≈ 0.452 to 0.905 µM); MIC ([12]; Pseudomonas aeruginosa, read-out: MIC PR3): 16 µg/mL (≈ 29 µM)
NCCC(O)C(=O)NC1CC(N)C(OC2OC(CN)C(O)CC2N)C(F)C1OC1OC(CNCC2CNC2)C(O)C(N)C1O (stereo not drawn) [SXP 2525]	0.5	4 µg/mL (≈ 6.26 µM)	0.25 to 0.5 µg/mL	1 µg/mL (≈ 1.57 µM)	8 µg/mL (≈ 12.5 µM)	0.5 µg/mL (≈ 0.783 µM)	1	1 µg/mL (≈ 1.57 µM)	1	0.5	2 µg/mL (≈ 3.13 µM)	8 µg/mL (≈ 12.5 µM)	2	2 to 4 µg/mL	1 µg/mL (≈ 1.57 µM)	8 µg/mL (≈ 12.5 µM)	
NCCC(O)C(=O)NC1CC(N)C(OC2OC(CN)C(O)CC2N)C(F)C1OC1OC(CNCC(O)CN)C(O)C(N)C1O (stereo not drawn) [SXP 2524]	0.5	4 µg/mL (≈ 6.22 µM)	0.25 µg/mL (≈ 0.389 µM)	1 µg/mL (≈ 1.56 µM)	4 µg/mL (≈ 6.22 µM)	0.5 µg/mL (≈ 0.778 µM)	0.5-1	0.5 µg/mL (≈ 0.778 µM)	0.5-1	0.5	2 µg/mL (≈ 3.11 µM)	8 µg/mL (≈ 12.4 µM)	2-4	2 µg/mL (≈ 3.11 µM)	1 µg/mL (≈ 1.56 µM)	8 µg/mL (≈ 12.4 µM)	
